Source: patent US11344620B2, “Combination therapies” (Novartis AG, priority 2014, dated 2022)

What was measured:
[1] = system: EGFR mutant (L858R, ex19del and T790M) cancer models; conditions: in vitro and in vivo; cited from earlier work
WT EGFR = WT EGFR (Homo sapiens, UniProt P00533); conditions: at clinically relevant efficacious concentrations; cited from earlier work
[2] = system: PD-L1 (CD274) on tumor cells; assay: Effects of targeted agents on PD-L1 modulation (real time PCR and flow cytometry), summary; type: cell-based, human
From the text: This example evaluates the effects of selected therapeutic agents (e.g., INC280, MEK162, LGX818 and LDK378) on PD-L1 (CD274) modulation. Selected therapeutic agents were examined by real time PCR and flow cytometry on PD-L1 levels.

[3] = system: PD-L1 (CD274) surface expression in EBC-1 cells; assay: Flow cytometry of PD-L1 surface expression in EBC-1 cells in vitro; type: cell-based, human; conditions: EBC-1 cells (NSCLC with cMET amplification), FIG. 1
Procedure: PD-L1 (CD274) expression was analyzed in cancer cell lines treated with INC280. Cells were obtained from ATCC and cultured in vitro following ATCC directions. The cell lines used were previously characterized by the Cancer Cell Line Encyclopedia Project (http://www.broadinstitute.org/ccle/home). Cells plated in six-well culture plates were treated with the INC280 at different concentrations (10 nM, 100 nM, and 1000 nM) for 24, 48 and 72 hours. Equal amount of vehicle (DMSO) was used as a control. Cells were washed with PBS and then harvested using a cell scraper. For each reaction, 0.5-1×10^6 cells were stained with 20 μL of anti-human monoclonal PD-L1-PE antibody, clone M1H1 (BD) for 30-60 minutes at 4° C. Cells were washed twice and data was acquired using a Canto II with FACSDiva software (BD Bioscience). Data analysis was performed using FlowJo software (Tree Star). Mean fluorescence intensity (MFI) was determined by gating on single cells. Unstained cells were used as a gating control.

[4] = system: PD-L1 (CD274) mRNA in Hs.746.T tumor xenograft; assay: TaqMan RT PCR of PD-L1 mRNA in Hs.746.T tumor xenograft; type: in vivo, human; conditions: Hs.746.T tumor (gastric cancer, cMET amplification & mutation) xenograft, FIG. 2
Procedure: (§1) TaqMan RT PCR assays were developed to detect changes of expression levels of PD-L1 (CD274) in cell lines and xenograft tumors. mRNA was isolated from frozen cell pellets or tumor fragments using the Qiagen RNeasy Mini kit. Isolated RNA was frozen at −80° C. RNA quality was checked and RNA was quantified using a 2100 Agilent Bioanalyzer following the protocol for the Agilent RNA 6000 Nano Kit. cDNA was prepared using a High Capacity RNA- to cDNA Kit (Applied Biosystems). Real-time PCR reactions were carried out in 20 μl total volume, including 10 μl of Universal PCR master mix (Applied Biosystems), 1 μl of human PD-L1 (CD274) probe/primer set (Applied Biosystems), and 8 μl of cDNA. Each sample was run in triplicate. The amount of cDNA produced from 25-50 ng of RNA in the reverse transcription reaction was used in each PCR reaction. Due to difference in mRNA levels between PD-L1 and GAPDH, the two real-time PCR reactions were done in separate tubes using same amount of cDNA. The real-time PCR reaction was run on the C1000 Thermal Cycle (BioRad) with the cycle program as follows: a 10 minute incubation at 95° C. followed by 40 cycles of 95° C. for 15 seconds and 60° C. for 1 minute. After the reaction was complete, the PD-L1 average Ct was normalized relative to each Ct value from the GAPDH reference reaction. Each normalized logarithmic value was then converted into a linear value.

[5] = system: PD-L1 (CD274) mRNA in H3122 cells; assay: TaqMan RT PCR of PD-L1 mRNA in H3122 cells in vitro; type: cell-based, human; conditions: H3122 (NSCLC with ALK translocation) in vitro, FIG. 3
Procedure: (§2) TaqMan RT PCR assays were developed to detect changes of expression levels of PD-L1 (CD274) in cell lines and xenograft tumors. mRNA was isolated from frozen cell pellets or tumor fragments using the Qiagen RNeasy Mini kit. Isolated RNA was frozen at −80° C. RNA quality was checked and RNA was quantified using a 2100 Agilent Bioanalyzer following the protocol for the Agilent RNA 6000 Nano Kit. cDNA was prepared using a High Capacity RNA- to cDNA Kit (Applied Biosystems).
as §1, with “Real-time” for “TaqMan RT PCR assays were developed to detect changes of expression levels of PD-L1 (CD274) in cell lines and xenograft tumors. mRNA was isolated from frozen cell pellets or tumor fragments using the Qiagen RNeasy Mini kit. Isolated RNA was frozen at −80° C. RNA quality was checked and RNA was quantified using a 2100 Agilent Bioanalyzer following the protocol for the Agilent RNA 6000 Nano Kit. cDNA was prepared using a High Capacity RNA- to cDNA Kit (Applied Biosystems). Real-time”

[6] = system: PD-L1 (CD274) mRNA in LOXIMV1 tumors; assay: TaqMan RT PCR of PD-L1 mRNA in LOXIMV1 tumor xenograft model; type: in vivo, human; conditions: tumor xenograft model bearing LOXIMV1 (BRAF mutant melanoma), FIG. 4
Procedure: as §2
as §1, with “Real-time” for “TaqMan RT PCR assays were developed to detect changes of expression levels of PD-L1 (CD274) in cell lines and xenograft tumors. mRNA was isolated from frozen cell pellets or tumor fragments using the Qiagen RNeasy Mini kit. Isolated RNA was frozen at −80° C. RNA quality was checked and RNA was quantified using a 2100 Agilent Bioanalyzer following the protocol for the Agilent RNA 6000 Nano Kit. cDNA was prepared using a High Capacity RNA- to cDNA Kit (Applied Biosystems). Real-time”

[7] = system: PD-L1 (CD274) mRNA in HEYA8 tumors; assay: TaqMan RT PCR of PD-L1 mRNA in HEYA8 tumor xenograft model; type: in vivo, human; conditions: tumor xenograft model bearing HEYA8 (KRAS mutant ovarian cancer), FIG. 5
Procedure: as §2
as §1, with “Real-time” for “TaqMan RT PCR assays were developed to detect changes of expression levels of PD-L1 (CD274) in cell lines and xenograft tumors. mRNA was isolated from frozen cell pellets or tumor fragments using the Qiagen RNeasy Mini kit. Isolated RNA was frozen at −80° C. RNA quality was checked and RNA was quantified using a 2100 Agilent Bioanalyzer following the protocol for the Agilent RNA 6000 Nano Kit. cDNA was prepared using a High Capacity RNA- to cDNA Kit (Applied Biosystems). Real-time”

Sequence of WT EGFR (P00533 25-1210): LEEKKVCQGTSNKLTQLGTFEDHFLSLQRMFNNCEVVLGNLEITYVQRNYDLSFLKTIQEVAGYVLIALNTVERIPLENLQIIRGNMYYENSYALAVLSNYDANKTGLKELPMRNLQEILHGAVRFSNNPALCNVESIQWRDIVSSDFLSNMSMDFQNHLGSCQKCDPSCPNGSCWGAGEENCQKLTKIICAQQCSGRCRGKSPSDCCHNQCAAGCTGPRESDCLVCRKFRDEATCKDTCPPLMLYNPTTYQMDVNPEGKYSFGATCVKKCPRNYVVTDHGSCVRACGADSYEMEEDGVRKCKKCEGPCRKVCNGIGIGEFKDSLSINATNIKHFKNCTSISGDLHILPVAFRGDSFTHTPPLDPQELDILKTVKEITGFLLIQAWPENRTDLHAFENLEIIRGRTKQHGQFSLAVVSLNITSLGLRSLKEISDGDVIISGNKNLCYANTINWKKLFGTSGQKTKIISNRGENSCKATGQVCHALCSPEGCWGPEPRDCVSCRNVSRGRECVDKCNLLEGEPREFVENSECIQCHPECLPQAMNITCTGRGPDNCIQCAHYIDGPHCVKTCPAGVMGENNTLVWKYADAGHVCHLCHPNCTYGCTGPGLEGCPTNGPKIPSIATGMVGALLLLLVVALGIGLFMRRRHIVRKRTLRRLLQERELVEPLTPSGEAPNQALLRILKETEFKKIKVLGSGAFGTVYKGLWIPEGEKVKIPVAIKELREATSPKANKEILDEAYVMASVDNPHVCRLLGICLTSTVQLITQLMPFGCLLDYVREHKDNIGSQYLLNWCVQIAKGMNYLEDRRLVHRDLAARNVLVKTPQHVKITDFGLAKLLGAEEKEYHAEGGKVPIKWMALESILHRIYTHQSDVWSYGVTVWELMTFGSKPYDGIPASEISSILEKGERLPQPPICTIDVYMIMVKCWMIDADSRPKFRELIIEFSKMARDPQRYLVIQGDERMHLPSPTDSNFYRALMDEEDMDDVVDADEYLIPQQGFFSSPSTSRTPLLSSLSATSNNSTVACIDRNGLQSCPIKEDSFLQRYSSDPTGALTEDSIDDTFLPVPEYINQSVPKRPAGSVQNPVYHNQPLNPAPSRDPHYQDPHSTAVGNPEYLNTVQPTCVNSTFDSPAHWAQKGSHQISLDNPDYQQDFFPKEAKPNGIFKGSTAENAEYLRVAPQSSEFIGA

SMILES: Cc1cc(C(=O)Nc2nc3cccc(Cl)c3n2[C@@H]2CCCCN(C(=O)/C=C/CN(C)C)C2)ccn1 [EGF816, (R,E)-N-(7-chloro-1-(1-(4-(dimethylamino)but-2-enoyl)azepan-3-yl)-1H-benzo[d]imidazol-2-yl)-2-methylisonicotinamide]
- efficacy in EGFR mutant cancer models [1]: significant efficacy
- WT EGFR inhibition (WT EGFR): no indication of WT EGFR inhibition

SMILES: CNC(=O)c1ccc(-c2cnc3ncc(Cc4ccc5ncccc5c4)n3n2)cc1F [INC280, 2-fluoro-N-methyl-4-[7-(quinolin-6-ylmethyl)imidazo[1,2-b][1,2,4]triazin-2-yl]benzamide]
- inhibition of PD-L1 on tumor cells [2]: Significant inhibition
- surface expression of PD-L1 [3]: significant downregulation
- PD-L1 expression (mRNA) [4]: Inhibition

SMILES: Cc1cc(Nc2ncc(Cl)c(Nc3ccccc3S(=O)(=O)C(C)C)n2)c(OC(C)C)cc1C1CCNCC1 [LDK378, 5-chloro-N2-(2-isopropoxy-5-methyl-4-(piperidin-4-yl)-phenyl)-N4-[2-(propane-2-sulfonyl)-phenyl]-pyrimidine-2,4-diamine, reference compound]
- inhibition of PD-L1 on tumor cells [2]: Significant inhibition
- PD-L1 mRNA [5]: Inhibition

SMILES: COC(=O)N[C@@H](C)CNc1nccc(-c2cn(C(C)C)nc2-c2cc(Cl)cc(NS(C)(=O)=O)c2F)n1 [LGX818, methyl (S)-(1-((4-(3-(5-chloro-2-fluoro-3-(methylsulfonamido)phenyl)-1-isopropyl-1H-pyrazol-4-yl)pyrimidin-2-yl)amino)propan-2-yl)carbamate]
- inhibition of PD-L1 on tumor cells [2]: Significant inhibition
- PD-L1 mRNA [6]: Downregulation

SMILES: Cn1cnc2c(F)c(Nc3ccc(Br)cc3F)c(C(=O)NOCCO)cc21 [MEK162, 5-((4-bromo-2-fluorophenyl)amino)-4-fluoro-N-(2-hydroxyethoxy)-1-methyl-1H-benzo[d]imidazole-6-carboxamide]
- inhibition of PD-L1 on tumor cells [2]: Significant inhibition
- PD-L1 mRNA [7]: Downregulation
